# Reference: patent US20230265151A1, “GIP/GLP1 CO-AGONIST COMPOUNDS” (priority 2020, published 2023)
# Where two headings read alike, the source gives them in different places.
# How the values were obtained:
# hGIPR = biological target: T1, hGIPR (Homo sapiens, UniProt P48546); test: Functional cAMP formation (HTRF) in HEK-293 clonal cells expressing hGIPR, 0.1% bovine casein, without or with 1.0% human serum albumin; format: cell-based; conditions: for EC50: geometric mean
# T1 construct: expressed in transfected cells
# T1 sequence (P48546 22-466): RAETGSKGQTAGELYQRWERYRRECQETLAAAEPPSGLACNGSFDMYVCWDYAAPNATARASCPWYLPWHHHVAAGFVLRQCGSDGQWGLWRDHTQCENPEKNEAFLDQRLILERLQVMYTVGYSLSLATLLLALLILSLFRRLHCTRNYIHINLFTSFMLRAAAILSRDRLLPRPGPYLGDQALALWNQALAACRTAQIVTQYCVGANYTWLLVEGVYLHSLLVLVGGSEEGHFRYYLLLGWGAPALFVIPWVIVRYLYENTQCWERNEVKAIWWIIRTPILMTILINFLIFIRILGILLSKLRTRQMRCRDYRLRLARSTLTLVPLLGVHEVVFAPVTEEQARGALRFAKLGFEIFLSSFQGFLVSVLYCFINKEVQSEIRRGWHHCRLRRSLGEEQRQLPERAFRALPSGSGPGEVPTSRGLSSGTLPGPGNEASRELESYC
# How it was run: (§1)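 Readings of the HTRF 665/620 nm ratio, which falls as cAMP rises, were converted to nM cAMP using a standard curve after 30 min peptide exposure at 37° C.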
# [1] = biological target: T2, human GIP receptor (hGIPR) (Homo sapiens, UniProt P48546); test: [125I]-GIP binding, SPA with membranes of CHO cells expressing hGIPR
# T2 construct: expressed in transfected cells; crude membranes
# T2 sequence (P48546 22-466): T1 sequence (P48546 22-466)
# hGLP-1R = hGLP-1R (Homo sapiens, UniProt P43220); test: Functional cAMP formation (HTRF) in HEK-293 clonal cells expressing hGLP-1R, 0.1% bovine casein, without or with 1.0% human serum albumin; format: cell-based; parameters: expressed in transfected cells; conditions: 37° C.; for EC50: 0.1% bovine casein and 1.0% human serum albumin, geometric mean; for Emax: read-out: hGLP-1R Emax, % ± SEM
# Chain of hGLP-1R (P43220 24-463): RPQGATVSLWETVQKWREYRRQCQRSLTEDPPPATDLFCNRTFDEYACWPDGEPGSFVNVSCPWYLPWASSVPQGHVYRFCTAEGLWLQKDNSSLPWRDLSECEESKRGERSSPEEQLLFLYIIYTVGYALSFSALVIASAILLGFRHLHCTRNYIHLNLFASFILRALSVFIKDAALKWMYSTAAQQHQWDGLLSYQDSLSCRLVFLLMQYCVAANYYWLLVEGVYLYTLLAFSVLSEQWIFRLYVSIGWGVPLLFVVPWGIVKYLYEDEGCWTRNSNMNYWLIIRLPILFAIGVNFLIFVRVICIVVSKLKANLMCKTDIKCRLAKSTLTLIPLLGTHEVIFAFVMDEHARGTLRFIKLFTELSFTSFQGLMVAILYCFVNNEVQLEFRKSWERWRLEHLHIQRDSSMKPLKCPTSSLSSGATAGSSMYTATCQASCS
# How it was run: as §1
# hGCGR = biological target: T3, hGCGR (Homo sapiens, UniProt P47871); test: Functional cAMP formation (HTRF) in HEK-293 clonal cells expressing hGCGR, 0.1% bovine casein, without or with 1.0% human serum albumin; format: cell-based; conditions: geometric mean
# T3 construct: expressed in transfected cells
# T3 sequence (P47871 26-477): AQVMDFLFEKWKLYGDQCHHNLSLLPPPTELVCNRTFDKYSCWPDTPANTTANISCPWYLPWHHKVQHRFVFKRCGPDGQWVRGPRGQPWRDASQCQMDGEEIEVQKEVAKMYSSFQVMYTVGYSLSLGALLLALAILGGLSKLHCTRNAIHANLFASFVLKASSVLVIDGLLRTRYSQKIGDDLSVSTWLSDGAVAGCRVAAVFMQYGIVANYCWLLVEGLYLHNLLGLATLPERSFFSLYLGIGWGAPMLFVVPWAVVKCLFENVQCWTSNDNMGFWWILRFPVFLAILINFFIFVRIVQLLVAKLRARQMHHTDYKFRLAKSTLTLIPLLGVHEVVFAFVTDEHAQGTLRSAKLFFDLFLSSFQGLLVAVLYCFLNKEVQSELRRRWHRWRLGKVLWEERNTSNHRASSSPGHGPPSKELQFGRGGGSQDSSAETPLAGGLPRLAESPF
# How it was run: as §1
# [2] = biological target: T4, human Gcg receptor (hGcgR) (Homo sapiens, UniProt P47871); test: [125I]-Glucagon binding, SPA with membranes of HEK293 cells expressing hGcgR
# T4 construct: expressed in transfected cells; crude membranes
# T4 sequence (P47871 26-477): as above
# [3] = hGIPR EC50, nM (SEM, n), cAMP, incubated at 37° C., 0.1% bovine casein (no human serum albumin)
# [4] = hGCGR EC50, nM (SEM, n), cAMP, incubated at 37° C., 0.1% bovine casein (no human serum albumin)
# [5] = 0.1% bovine casein and 1.0% human serum albumin, 37° C., read-out: hGIPR EC50, nM (SEM, n)
# [6] = HEK293, 0.1% bovine casein and 1.0% human serum albumin, 37° C., percent of maximal response to GIP(1-42)NH2, read-out: hGIPR Emax, % ± SEM
# [7] = HEK293, percent of maximal response to GIP(1-42)NH2, 37° C., 0.1% bovine casein, arithmetic mean, read-out: hGIPR Emax, % ± SEM
# [8] = cAMP, incubated at 37° C., 0.1% bovine casein (no human serum albumin), read-out: hGIPR EC50, nM (SEM, n)
# [9] = human GIPR, geometric mean (SEM, n), read-out: Binding Affinity Ki, nM (SEM, n) hGIPR
# [10] = read-out: hGLP-1R EC50, nM (SEM, n)
# [11] = 0.1% bovine casein and 1.0% human serum albumin, 37° C., read-out: hGCGR EC50, nM (SEM, n)
# [12] = cAMP, incubated at 37° C., 0.1% bovine casein (no human serum albumin), read-out: hGCGR EC50, nM (SEM, n)
# [13] = human GcgR, geometric mean (SEM, n), read-out: Binding Affinity Ki, nM (SEM, n) hGCGR
SMILES,"EC50 (hGIPR; hGIPR EC50, nM (SEM, n), 0.1% bovine casein and 1.0% human serum albumin, 37° C.) [nM]",EC50 (hGIPR; [3]) [nM],Ki [1] [nM],"EC50 (hGLP-1R; hGLP-1R EC50, nM (SEM, n)) [nM]","EC50 (hGCGR; hGCGR EC50, nM (SEM, n), 0.1% bovine casein and 1.0% human serum albumin, 37° C.) [nM]",EC50 (hGCGR; [4]) [nM],Ki [2] [nM],EC50 (hGIPR; [5]) [nM],Emax (hGIPR; [6]) [%],Emax (hGIPR; [7]) [%],EC50 (hGIPR; [8]) [nM],"Ki [1, 9] [nM]",EC50 (hGLP-1R; [10]) [nM],"Emax (hGLP-1R; HEK293, 0.1% bovine casein and 1.0% human serum albumin, percent of maximal response to GLP-1(7-36)NH2) [%]","Emax (hGLP-1R; HEK293, percent of maximal response to GLP-1(7-36)NH2, 0.1% bovine casein, arithmetic mean) [%]",EC50 (hGCGR; [11]) [nM],EC50 (hGCGR; [12]) [nM],"Ki [2, 13] [nM]","Emax (hGIPR; HEK293, read-out: hGIPR Emax, % ± SEM, percent of maximal response to GIP(1-42)NH2, 37° C., 0.1% bovine casein, arithmetic mean) [%]"
CC[C@H](C)[C@H](NC(=O)[C@H](CC(C)C)NC(=O)[C@](C)(Cc1ccc(O)cc1)NC(=O)[C@@H](CCC(=O)O)NC(=O)[C@@H](NC(=O)[C@H](Cc1ccccc1)NC(=O)[C@H](CCC(=O)O)NC(=O)C(C)(C)NC(=O)[C@H](CCC(N)=O)NC(=O)[C@H](C)NC(=O)[C@H](CCCCNC(=O)COCCOCCNC(=O)CC[C@H](NC(=O)CCCCCCCCCOc1ccc(C(=O)O)cc1)C(=O)O)NC(=O)[C@H](CCCN)NC(=O)[C@H](CC(=O)O)NC(=O)[C@H](CC(C)C)NC(=O)[C@](C)(CC(C)C)NC(=O)[C@@H](NC(=O)[C@H](CO)NC(=O)[C@H](Cc1ccncc1)NC(=O)[C@H](CC(=O)O)NC(=O)[C@H](CO)NC(=O)[C@@H](NC(=O)[C@](C)(Cc1ccccc1F)NC(=O)[C@@H](NC(=O)CNC(=O)[C@H](CCC(=O)O)NC(=O)C(C)(C)NC(=O)[C@@H](N)Cc1ccc(O)cc1)[C@@H](C)O)[C@@H](C)O)[C@@H](C)CC)[C@@H](C)CC)C(=O)N[C@@H](CCC(=O)O)C(=O)NCC(=O)NCC(=O)N[C@@H](CCCCNC(=O)COCCOCCNC(=O)CC[C@H](NC(=O)CCCCCCCCCOc1ccc(C(=O)O)cc1)C(=O)O)C(=O)N[C@@H](CO)C(=O)N[C@@H](CO)C(=O)NCC(=O)N[C@@H](C)C(=O)N1CCC[C@H]1C(=O)N1CCC[C@H]1C(=O)N1CCC[C@H]1C(=O)N[C@@H](CO)C(N)=O [Example 12],0.745,0.0127,0.0575,20.3,> 9950,> 9950,213,–,–,–,–,–,–,–,–,–,–,–,–
CC[C@H](C)[C@H](NC(=O)[C@H](CC(C)C)NC(=O)[C@](C)(Cc1ccc(O)cc1)NC(=O)[C@@H](CCC(=O)O)NC(=O)[C@@H](NC(=O)[C@H](Cc1ccccc1)NC(=O)[C@H](CCCCNC(=O)COCCOCCNC(=O)COCCOCCNC(=O)CC[C@H](NC(=O)CCCCCCCCCCCCC(=O)O)C(=O)O)NC(=O)C(C)(C)NC(=O)[C@H](CCC(N)=O)NC(=O)[C@H](C)NC(=O)[C@H](CCCCNC(=O)COCCOCCNC(=O)COCCOCCNC(=O)CC[C@H](NC(=O)CCCCCCCCCCCCC(=O)O)C(=O)O)NC(=O)[C@H](CCCN)NC(=O)[C@H](CC(=O)O)NC(=O)[C@H](CC(C)C)NC(=O)[C@](C)(CC(C)C)NC(=O)[C@@H](NC(=O)[C@H](CO)NC(=O)[C@H](Cc1ccncc1)NC(=O)[C@H](CC(=O)O)NC(=O)[C@H](CO)NC(=O)[C@@H](NC(=O)[C@](C)(Cc1ccccc1F)NC(=O)[C@@H](NC(=O)CNC(=O)[C@H](CCC(=O)O)NC(=O)C(C)(C)NC(=O)[C@@H](N)Cc1ccc(O)cc1)[C@@H](C)O)[C@@H](C)O)[C@@H](C)CC)[C@@H](C)CC)C(=O)N[C@@H](CCC(=O)O)C(=O)NCC(=O)NCC(=O)N1CCC[C@H]1C(=O)N[C@@H](CO)C(=O)N[C@@H](CO)C(=O)NCC(=O)N[C@@H](C)C(=O)N1CCC[C@H]1C(=O)N1CCC[C@H]1C(=O)N1CCC[C@H]1C(=O)N[C@@H](CO)C(N)=O [Example 15],–,–,–,–,–,–,–,0.573,94.4 ± 1.01,95.9 ± 2.34,0.0133,0.0629,24.8,93.2 ± 3.68,94.3 ± 4.44,> 9950,> 9950,> 966,–
CC[C@H](C)[C@H](NC(=O)[C@H](CC(C)C)NC(=O)[C@](C)(Cc1ccc(O)cc1)NC(=O)[C@@H](CCC(=O)O)NC(=O)[C@@H](NC(=O)[C@H](Cc1ccccc1)NC(=O)[C@H](CCC(=O)O)NC(=O)C(C)(C)NC(=O)[C@H](CCC(N)=O)NC(=O)[C@H](C)NC(=O)[C@H](CCCCNC(=O)[C@@H](N)CCCCNC(=O)COCCOCCNC(=O)COCCOCCNC(=O)CC[C@H](NC(=O)CCCCCCCCCCCCC(=O)O)C(=O)O)NC(=O)[C@H](CCCN)NC(=O)[C@H](CC(=O)O)NC(=O)[C@H](CC(C)C)NC(=O)[C@](C)(CC(C)C)NC(=O)[C@@H](NC(=O)[C@H](CO)NC(=O)[C@H](Cc1ccncc1)NC(=O)[C@H](CC(=O)O)NC(=O)[C@H](CO)NC(=O)[C@@H](NC(=O)[C@](C)(Cc1ccccc1F)NC(=O)[C@@H](NC(=O)CNC(=O)[C@H](CCC(=O)O)NC(=O)C(C)(C)NC(=O)[C@@H](N)Cc1ccc(O)cc1)[C@@H](C)O)[C@@H](C)O)[C@@H](C)CC)[C@@H](C)CC)C(=O)N[C@@H](CCC(=O)O)C(=O)NCC(=O)NCC(=O)N[C@@H](CCCCNC(=O)[C@@H](N)CCCCNC(=O)COCCOCCNC(=O)COCCOCCNC(=O)CC[C@H](NC(=O)CCCCCCCCCCCCC(=O)O)C(=O)O)C(=O)N[C@@H](CO)C(=O)N[C@@H](CO)C(=O)NCC(=O)N[C@@H](C)C(=O)N1CCC[C@H]1C(=O)N1CCC[C@H]1C(=O)N1CCC[C@H]1C(=O)N[C@@H](CO)C(N)=O [Example 37],–,–,–,–,–,–,–,0.306,88.5 ± 0.188,91.2 ± 3.67,0.0211,0.171,17,–,–,> 9950,> 9950,> 957,–
CC[C@H](C)[C@H](NC(=O)[C@H](CC(C)C)NC(=O)[C@](C)(Cc1ccc(O)cc1)NC(=O)[C@H](CCCCNC(=O)COCCOCCNC(=O)COCCOCCNC(=O)CC[C@H](NC(=O)CCCCCCCCCOc1ccc(C(=O)O)cc1)C(=O)O)NC(=O)[C@@H](NC(=O)[C@H](Cc1ccccc1)NC(=O)[C@H](CCC(=O)O)NC(=O)C(C)(C)NC(=O)[C@H](CCC(N)=O)NC(=O)[C@H](C)NC(=O)[C@H](CCCCNC(=O)COCCOCCNC(=O)COCCOCCNC(=O)CC[C@H](NC(=O)CCCCCCCCCOc1ccc(C(=O)O)cc1)C(=O)O)NC(=O)[C@H](CCCN)NC(=O)[C@H](CC(=O)O)NC(=O)[C@H](CC(C)C)NC(=O)[C@](C)(CC(C)C)NC(=O)[C@@H](NC(=O)[C@H](CO)NC(=O)[C@H](Cc1ccncc1)NC(=O)[C@H](CC(=O)O)NC(=O)[C@H](CO)NC(=O)[C@@H](NC(=O)[C@](C)(Cc1ccccc1F)NC(=O)[C@@H](NC(=O)CNC(=O)[C@H](CCC(=O)O)NC(=O)C(C)(C)NC(=O)[C@@H](N)Cc1ccc(O)cc1)[C@@H](C)O)[C@@H](C)O)[C@@H](C)CC)[C@@H](C)CC)C(=O)N[C@@H](CCC(=O)O)C(=O)NCC(=O)NCC(=O)N1CCC[C@H]1C(=O)N[C@@H](CO)C(=O)N[C@@H](CO)C(=O)NCC(=O)N[C@@H](C)C(=O)N1CCC[C@H]1C(=O)N1CCC[C@H]1C(=O)N1CCC[C@H]1C(=O)N[C@@H](CO)C(N)=O [Example 128],–,0.0232,0.0314,–,–,> 9950,> 955,–,–,–,–,–,–,–,–,–,–,–,98.5 ± 2.47
